Test results as given in patent US20260232767A1, “INTERLEUKIN-23 RECEPTOR ANTAGONIST PEPTIDES FOR USE IN THE TREATMENT OF PSORIASIS” (Janssen Pharmaceutica NV, priority 2023, published 2026).

Test system: subjects with moderate-to-severe plaque psoriasis
Assay: Safety, adverse events, Example 2 through Week 56
Format: in vivo, human
Conditions: 100 mg QD
Source text: The LTE safety analysis was based on randomized participants in Example who entered the present long-term extension study and received at least one dose of study intervention (including a partial dose) during the study period.

For `CC(=O)NCCCC[C@@H]1NC(=O)[C@H](Cc2c[nH]c3c(C)cccc23)NC(=O)[C@H]([C@@H](C)O)NC(=O)[C@H](CC(N)=O)NC(=O)[C@@H](NC(C)=O)C(C)(C)SSC(C)(C)[C@@H](C(=O)N[C@@H](Cc2ccc(OCCN)cc2)C(=O)N[C@@H](Cc2ccc3ccccc3c2)C(=O)NC2(C(=O)N[C@@H](CCC(=O)O)C(=O)N[C@@H](CC(N)=O)C(=O)N[C@@H](Cc3cccnc3)C(=O)N(C)CC(N)=O)CCOCC2)NC1=O` [IL-23 receptor antagonist peptide, Ac-[Pen]*-N-T-[W(7-Me)]-[Lys(Ac)]-[Pen]*-Phe[4-(2-aminoethoxy)]-[2-Nal]-[THP]-E-N-[3-Pal]-Sarc-NH2 (*[Pen]-[Pen]* formdisulfidebond)], the “Subjects with treatment-emergent AE: Bronchitis” value (Week 16-56) was 0, the “Subjects with treatment-emergent AE: Meniscus injury” value (Week 16-56) was 0 and the “Subjects with treatment-emergent AE: Sinusitis” value (Week 16-56) was 0. The “Subjects with treatment-emergent AE: Urinary tract infection” value (Week 16-56) was 0, the “Subjects with treatment-emergent serious AE: Cardiac disorders” value (Week 16-56) was 0 and the “Subjects with treatment-emergent serious AE: Cerebrovascular accident” value (Week 16-56) was 0. For the same molecule, the “Subjects with treatment-emergent serious AE: Coronary artery disease” value (Week 16-56) was 0, the “Subjects with treatment-emergent serious AE: Foot deformity” value (Week 16-56) was 0 and the “Subjects with treatment-emergent serious AE: General disorders and administration site conditions” value (Week 16-56) was 0. The “Subjects with treatment-emergent serious AE: Injury, poisoning and procedural complications” value (Week 16-56) was 0, the “Subjects with treatment-emergent serious AE: Ligament injury” value (Week 16-56) was 0 and the “Subjects with treatment-emergent serious AE: Neoplasms benign, malignant and unspecified (incl cysts and polyps)” value (Week 16-56) was 0. The “Subjects with treatment-emergent serious AE: Nervous system disorders” value (Week 16-56) was 0, the “Subjects with treatment-emergent serious AE: Non-cardiac chest pain” value (Week 16-56) was 0 and the “Subjects with treatment-emergent serious AE: Respiratory, thoracic and mediastinal disorders” value (Week 16-56) was 0. For the same molecule, the “Subjects with treatment-emergent serious AE: Tonsillar hypertrophy” value (Week 16-56) was 0, the “Subjects with treatment-emergent serious AE: Uterine leiomyoma” value (Week 16-56) was 0 and the “Subjects with treatment-emergent serious AE: Ventricular dysfunction” value (Week 16-56) was 0. The “Acrochordon: % of subjects” value (through Week 56) was “(2.3%)”, the “Acrochordon: number of subjects” value (through Week 56) was 1 and the “Actinic keratosis: number of subjects” value (through Week 56) was 0. For the same molecule, the “Alopecia: number of subjects” value (through Week 56) was 0, the “Asthenia: number of subjects” value (through Week 56) was 0 and the “Asthma: % of subjects” value (through Week 56) was “(2.3%)”. For the same molecule, the “Asthma: number of subjects” value (through Week 56) was 1, the “Atrioventricular block first degree: % of subjects” value (through Week 56) was “(2.3%)” and the “Atrioventricular block first degree: number of subjects” value (through Week 56) was 1. The “Basal cell carcinoma: number of subjects” value (through Week 56) was 0, the “Blood and lymphatic system disorders: number of subjects” value (through Week 56) was 0 and the “Bronchitis chronic: % of subjects” value (through Week 56) was “(2.3%)”. The “Bronchitis chronic: number of subjects” value (through Week 56) was 1, the “Bundle branch block right: number of subjects” value (through Week 56) was 0 and the “Cardiac disorders: % of subjects” value (through Week 56) was “(2.3%)”. For the same molecule, the “Cardiac disorders: number of subjects” value (through Week 56) was 1, the “Chills: % of subjects” value (through Week 56) was “(2.3%)” and the “Chills: number of subjects” value (through Week 56) was 1. For the same molecule, the “Cholelithiasis: % of subjects” value (through Week 56) was “(2.3%)”, the “Cholelithiasis: number of subjects” value (through Week 56) was 1 and the “Chronic obstructive pulmonary disease: % of subjects” value (through Week 56) was “(2.3%)”. For the same molecule, the “Chronic obstructive pulmonary disease: number of subjects” value (through Week 56) was 1, the “Coronary artery disease: number of subjects” value (through Week 56) was 0 and the “Cough: % of subjects” value (through Week 56) was “(7.0%)”. The “Cough: number of subjects” value (through Week 56) was 3, the “Decreased appetite: number of subjects” value (through Week 56) was 0 and the “Depression: % of subjects” value (through Week 56) was “(2.3%)”. For the same molecule, the “Depression: number of subjects” value (through Week 56) was 1, the “Dermal cyst: number of subjects” value (through Week 56) was 0 and the “Dermatitis acneiform: number of subjects” value (through Week 56) was 0. The “Dermatitis contact: % of subjects” value (through Week 56) was “(2.3%)”, the “Dermatitis contact: number of subjects” value (through Week 56) was 1 and the “Diabetes mellitus: number of subjects” value (through Week 56) was 0. For the same molecule, the “Diffuse alopecia: number of subjects” value (through Week 56) was 0, the “Dysuria: number of subjects” value (through Week 56) was 0 and the “Ear and labyrinth disorders: % of subjects” value (through Week 56) was “(2.3%)”. For the same molecule, the “Ear and labyrinth disorders: number of subjects” value (through Week 56) was 1, the “Endocrine disorders: number of subjects” value (through Week 56) was 0 and the “Eye disorders: number of subjects” value (through Week 56) was 0. For the same molecule, the “Eyelid skin dryness: number of subjects” value (through Week 56) was 0, the “Fatigue: % of subjects” value (through Week 56) was “(2.3%)” and the “Fatigue: number of subjects” value (through Week 56) was 1. The “General disorders and administration site conditions: % of subjects” value (through Week 56) was “(7.0%)”, the “General disorders and administration site conditions: number of subjects” value (through Week 56) was 3 and the “Goiter: number of subjects” value (through Week 56) was 0. The “Haemochromatosis: number of subjects” value (through Week 56) was 0, the “Hand dermatitis: number of subjects” value (through Week 56) was 0 and the “Hematuria: number of subjects” value (through Week 56) was 0. The “Hepatobiliary disorders: % of subjects” value (through Week 56) was “(2.3%)”, the “Hepatobiliary disorders: number of subjects” value (through Week 56) was 1 and the “Hypercholesterolemia: % of subjects” value (through Week 56) was “(2.3%)”. For the same molecule, the “Hypercholesterolemia: number of subjects” value (through Week 56) was 1, the “Hyperglycemia: % of subjects” value (through Week 56) was “(2.3%)” and the “Hyperglycemia: number of subjects” value (through Week 56) was 1. For the same molecule, the “Hyperlipidemia: number of subjects” value (through Week 56) was 0, the “Hypertension: % of subjects” value (through Week 56) was “(2.3%)” and the “Hypertension: number of subjects” value (through Week 56) was 1. For the same molecule, the “Hypertransaminasemia: number of subjects” value (through Week 56) was 0, the “Hypertriglyceridemia: number of subjects” value (through Week 56) was 0 and the “Hypoacusis: number of subjects” value (through Week 56) was 0. The “Immune system disorders: number of subjects” value (through Week 56) was 0, the “Influenza like illness: number of subjects” value (through Week 56) was 0 and the “Insomnia: % of subjects” value (through Week 56) was “(2.3%)”. The “Insomnia: number of subjects” value (through Week 56) was 1, the “Intertrigo: number of subjects” value (through Week 56) was 0 and the “Ketonuria: number of subjects” value (through Week 56) was 0. For the same molecule, the “Leukocyturia: % of subjects” value (through Week 56) was “(2.3%)”, the “Leukocyturia: number of subjects” value (through Week 56) was 1 and the “Leukopenia: number of subjects” value (through Week 56) was 0. The “Libido decreased: % of subjects” value (through Week 56) was “(2.3%)”, the “Libido decreased: number of subjects” value (through Week 56) was 1 and the “Liver disorder: number of subjects” value (through Week 56) was 0. For the same molecule, the “Lymphopenia: number of subjects” value (through Week 56) was 0, the “Menopause: number of subjects” value (through Week 56) was 0 and the “Metabolism and nutrition disorders: % of subjects” value (through Week 56) was “(4.7%)”. The “Metabolism and nutrition disorders: number of subjects” value (through Week 56) was 2, the “Neoplasms benign, malignant and unspecified (incl cysts and polyps): % of subjects” value (through Week 56) was “(2.3%)” and the “Neoplasms benign, malignant and unspecified (incl cysts and polyps): number of subjects” value (through Week 56) was 1. For the same molecule, the “Nephrolithiasis: % of subjects” value (through Week 56) was “(2.3%)”, the “Nephrolithiasis: number of subjects” value (through Week 56) was 1 and the “Neutropenia: number of subjects” value (through Week 56) was 0. For the same molecule, the “Night sweats: number of subjects” value (through Week 56) was 0, the “Non-cardiac chest pain: number of subjects” value (through Week 56) was 0 and the “Ocular cyst: number of subjects” value (through Week 56) was 0. The “Oedema peripheral: % of subjects” value (through Week 56) was “(2.3%)”, the “Oedema peripheral: number of subjects” value (through Week 56) was 1 and the “Oropharyngeal pain: % of subjects” value (through Week 56) was “(2.3%)”. For the same molecule, the “Oropharyngeal pain: number of subjects” value (through Week 56) was 1, the “Procedural pain: number of subjects” value (through Week 56) was 0 and the “Productive cough: number of subjects” value (through Week 56) was 0. The “Proteinuria: number of subjects” value (through Week 56) was 0, the “Pruritus: % of subjects” value (through Week 56) was “(2.3%)” and the “Pruritus: number of subjects” value (through Week 56) was 1. For the same molecule, the “Psoriasis: number of subjects” value (through Week 56) was 0, the “Psychiatric disorders: % of subjects” value (through Week 56) was “(7.0%)” and the “Psychiatric disorders: number of subjects” value (through Week 56) was 3. The “Pyrexia: number of subjects” value (through Week 56) was 0, the “Rash pruritic: number of subjects” value (through Week 56) was 0 and the “Renal and urinary disorders: % of subjects” value (through Week 56) was “(4.7%)”. The “Renal and urinary disorders: number of subjects” value (through Week 56) was 2, the “Renal mass: number of subjects” value (through Week 56) was 0 and the “Respiratory, thoracic and mediastinal disorders: % of subjects” value (through Week 56) was “(9.3%)”.
